Experimental data reported in US20150320880A1, “ANTIBODY DRUG CONJUGATES” (NOVARTIS AG, priority 2013, published 2015).

T1: Cynomolgus monkey cKIT D1-5 (residues 25-520, C-terminal His tag) (cynomolgus monkey, UniProt P10721 25-520 (human entry))
T1 construct: the signal peptide was not part of the protein in the assay; also called cyno cKIT; cynomolgus monkey ECD
T1 chain: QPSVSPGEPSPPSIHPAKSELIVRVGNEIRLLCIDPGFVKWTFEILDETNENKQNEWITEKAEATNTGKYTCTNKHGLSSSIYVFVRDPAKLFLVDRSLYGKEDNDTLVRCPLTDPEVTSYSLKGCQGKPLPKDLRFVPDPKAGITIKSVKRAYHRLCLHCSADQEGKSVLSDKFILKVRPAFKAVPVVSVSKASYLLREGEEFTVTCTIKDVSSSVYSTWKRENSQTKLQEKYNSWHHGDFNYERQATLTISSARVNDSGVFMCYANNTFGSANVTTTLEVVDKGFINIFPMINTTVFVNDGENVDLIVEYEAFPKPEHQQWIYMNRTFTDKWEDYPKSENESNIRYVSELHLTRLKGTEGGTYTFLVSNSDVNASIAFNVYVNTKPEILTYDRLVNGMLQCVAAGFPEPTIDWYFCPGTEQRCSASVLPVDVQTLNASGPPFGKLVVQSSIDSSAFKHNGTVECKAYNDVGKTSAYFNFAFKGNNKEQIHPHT

T2: Mouse cKIT ECD, C-terminal 6x His (Sino Biological Inc, catalog number 50530-M08H) (mouse, UniProt P05532 25-527)
T2 construct: extracellular domain; Bought protein
T2 sequence (looked up): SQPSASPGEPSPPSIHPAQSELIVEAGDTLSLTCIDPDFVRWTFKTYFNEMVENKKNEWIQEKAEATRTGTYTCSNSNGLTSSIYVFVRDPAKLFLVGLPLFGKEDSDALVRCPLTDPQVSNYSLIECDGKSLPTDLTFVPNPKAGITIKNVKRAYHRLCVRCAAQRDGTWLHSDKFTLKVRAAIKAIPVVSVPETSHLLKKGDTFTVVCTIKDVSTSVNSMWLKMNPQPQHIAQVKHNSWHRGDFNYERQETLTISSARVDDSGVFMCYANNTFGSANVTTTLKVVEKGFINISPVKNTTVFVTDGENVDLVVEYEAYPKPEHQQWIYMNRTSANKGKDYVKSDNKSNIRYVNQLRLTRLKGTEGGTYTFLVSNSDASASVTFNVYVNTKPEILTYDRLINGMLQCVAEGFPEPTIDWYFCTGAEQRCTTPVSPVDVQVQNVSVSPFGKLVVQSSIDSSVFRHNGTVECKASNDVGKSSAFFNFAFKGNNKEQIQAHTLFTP

T3: Rat cKIT D1-5 (residues 25-526, C-terminal mFc) (rat)
T3 construct: The entry includes the linker and mouse Fc tag; also called rat cKIT-mFc
T3 chain: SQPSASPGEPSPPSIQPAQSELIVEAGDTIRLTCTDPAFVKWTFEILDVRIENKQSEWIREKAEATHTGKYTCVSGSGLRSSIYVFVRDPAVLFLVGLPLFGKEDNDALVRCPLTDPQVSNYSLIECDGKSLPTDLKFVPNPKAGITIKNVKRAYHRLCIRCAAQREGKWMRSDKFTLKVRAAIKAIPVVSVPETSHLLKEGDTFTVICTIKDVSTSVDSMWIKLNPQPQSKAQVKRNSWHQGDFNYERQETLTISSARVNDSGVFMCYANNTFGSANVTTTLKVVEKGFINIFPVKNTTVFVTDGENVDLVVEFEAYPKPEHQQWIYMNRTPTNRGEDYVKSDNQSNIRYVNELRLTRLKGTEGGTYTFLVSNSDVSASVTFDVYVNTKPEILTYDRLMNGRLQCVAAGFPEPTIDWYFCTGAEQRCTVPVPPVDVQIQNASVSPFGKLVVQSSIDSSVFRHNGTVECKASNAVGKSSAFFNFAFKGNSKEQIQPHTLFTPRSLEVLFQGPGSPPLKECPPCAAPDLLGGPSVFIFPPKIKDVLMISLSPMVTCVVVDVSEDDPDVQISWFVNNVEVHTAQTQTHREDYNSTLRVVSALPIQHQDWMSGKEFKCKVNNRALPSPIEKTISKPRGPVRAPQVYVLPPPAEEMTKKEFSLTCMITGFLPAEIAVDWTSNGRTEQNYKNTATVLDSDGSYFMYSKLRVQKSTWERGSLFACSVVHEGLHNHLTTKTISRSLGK


Key:
[1] = test system: HAMLX5343 systemic primary AML xenograft
Description: Female NSG mice were implanted systemically (via tail vein injection) with 5×10^6 cells in phosphate buffered saline.
Leukemic burden was measured by flow cytometry. Weekly, blood was collected from all study animals via the tail. […] The stained cells were analyzed on a FACS Canto flow cytometer (BD Biosciences) (FIG. 52A). Body weights were measured twice weekly (FIG. 52B).

GIST882 cell line = assay: Combination dose-matrix cell viability (CellTiter Glo, Loewe model); format: cell-based; settings: NEG085-MCC-DM1 in combination with the compound, 120 h
Description: (§1) Relative inhibition of cell viability was calculated for every dose combination. […] Excess inhibition compared to additivity can be plotted as a full dose-matrix chart to visualize the drug concentrations where synergies occur. Synergistic combinations produced regions of excess inhibition within the dose-matrix. […] “Additivity” was found when the combination generated the same inhibition of cell viability response when compared to the response with the single agent by itself “Synergy” was indicated when the inhibition of cell viability was greater than the response of the single agent compared with itself. Alternatively, “Additivity” was indicated with a Loewe score of less than 5, and “Synergy” was indicated by a Loewe score of greater than 5.
(§2) Cell viability was determined by measuring cellular ATP content using the CellTiter Glo luminescence assay (Promega, Madison Wis.). One day before drug addition, 250-500 GIST cells from 2 different cell lines were plated into 384-well plates (Greiner, Monroe, N.C.) in 20 μl growth media.

GIST430 cell line = assay: as above; format: cell-based; settings: NEG085-MCC-DM1 in combination with the compound, 120 h
Description: as §1, §2

[2] = molecular target: T4, Human cKIT D1-5 (human cKIT tr. variant 2, residues 26-520, C-terminal His tag) (human, UniProt P10721 26-524); assay: SPR (Biacore 2000), antibody captured on anti-human Fc, cKIT ECD as analyte, 25 C, 1:1 fit
T4 construct: also called human cKIT ECD; Human c-Kit ECD
T4 sequence (P10721 other isoform, or with tags, fused parts or gaps mutant limits assumed): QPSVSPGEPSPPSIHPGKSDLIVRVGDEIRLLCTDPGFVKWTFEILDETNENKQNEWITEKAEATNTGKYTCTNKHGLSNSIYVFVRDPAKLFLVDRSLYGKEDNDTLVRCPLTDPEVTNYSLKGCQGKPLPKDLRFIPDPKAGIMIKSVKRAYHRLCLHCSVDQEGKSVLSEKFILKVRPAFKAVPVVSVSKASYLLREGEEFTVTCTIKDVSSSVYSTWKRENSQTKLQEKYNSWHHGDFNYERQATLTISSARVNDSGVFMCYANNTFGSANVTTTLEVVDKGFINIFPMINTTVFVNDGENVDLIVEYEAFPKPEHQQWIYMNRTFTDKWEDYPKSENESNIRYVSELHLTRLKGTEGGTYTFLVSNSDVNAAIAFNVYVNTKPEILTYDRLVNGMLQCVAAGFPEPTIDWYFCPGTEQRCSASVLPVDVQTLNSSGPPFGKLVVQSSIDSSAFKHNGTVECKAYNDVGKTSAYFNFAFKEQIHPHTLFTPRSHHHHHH

[3] = molecular target: T1, Cynomolgus monkey cKIT D1-5 (residues …); assay: as above
[4] = molecular target: T2, Mouse cKIT ECD, C-terminal 6x His (Sino …); assay: SPR (Biacore 2000), antibody captured on anti-human Fc
[5] = molecular target: T3, Rat cKIT D1-5 (residues 25-526, …); assay: as above

Molecule | GIST882 cell line (GIST882 cell line) | GIST430 cell line (GIST430 cell line) | further results
Nc1ccn([C@@H]2O[C@H](CO)[C@@H](O)[C@@H]2O)c(=O)n1 [ARA-C (cytarabine), cytarabine, reference compound] |  |  | Mean change of body weight (from day 67, % ± SEM) ([1]; Day 71, 50 mg/kg Daily × 6 days, intraperitoneally): 2.3 ± 2.3%; anti-tumor activity (leukemic burden) ([1]; NSG mice, intraperitoneally daily for 6 days): efficacious in three of the animals; bodyweight loss ([1]; intraperitoneally daily for 6 days, in three of six animals): > 20%; Mean change of tumor volume (% CD45 positive PBMC's ± SEM) ([1]; mouse, in vivo): −6.6 ± 2.1 % CD45 positive PBMC's; Regression (%) ([1]; mouse, in vivo): −52.5%
CO[C@H]1C[C@@H]2CC[C@@H](C)[C@@](O)(O2)C(=O)C(=O)N2CCCC[C@H]2C(=O)O[C@H]([C@H](C)C[C@@H]2CC[C@@H](OCCO)[C@H](OC)C2)CC(=O)[C@H](C)/C=C(\C)[C@@H](O)[C@@H](OC)C(=O)[C@H](C)C[C@H](C)/C=C/C=C/C=C/1C [Afinitor ®, Everolimus] | Synergy (“Synergy” was indicated by a Loewe score of greater than 5) | Synergy (“Synergy” was indicated by a Loewe score of greater than 5) | 
Cn1c(=O)n(-c2ccc(C(C)(C)C#N)cc2)c2c3cc(-c4cnc5ccccc5c4)ccc3ncc21 [NVP-BEZ235, 2-Methyl-2-[4-[3-methyl-2-oxo-8-(quinolin-3-yl)-2,3-dihydroimidazo[4,5-c]quinolin-1-yl]phenyl]propionitrile] | Synergy (“Synergy” was indicated by a Loewe score of greater than 5) | Additivity (“Additivity” was indicated with a Loewe score of less than 5) | 
Nc1cc(C(F)(F)F)c(-c2cc(N3CCOCC3)nc(N3CCOCC3)n2)cn1 [NVP-BKM120, 4-(trifluoromethyl)-5-(2,6-dimorpholinopyrimidin-4-yl)pyridin-2-amine] | Synergy (“Synergy” was indicated by a Loewe score of greater than 5) | Additivity (“Additivity” was indicated with a Loewe score of less than 5) | 
C[C@@H]1CN(c2ccc(Nc3ncc4ccn(-c5cc(F)c(CN6CCOCC6)c(F)c5)c4n3)cn2)C[C@H](C)N1 [NVP-BVB808] | Additivity (“Additivity” was indicated with a Loewe score of less than 5) | Additivity (“Additivity” was indicated with a Loewe score of less than 5) | 
Cc1nc(NC(=O)N2CCC[C@H]2C(N)=O)sc1-c1ccnc(C(C)(C)C(F)(F)F)c1 [NVP-BYL719] | Synergy (“Synergy” was indicated by a Loewe score of greater than 5) | Synergy (“Synergy” was indicated by a Loewe score of greater than 5) | 
COc1ccc(-c2ccc3c(N4CCOC[C@@H]4C)nc(N4CCOC[C@@H]4C)nc3n2)cc1CO [NVP-CCG168] | Additivity (“Additivity” was indicated with a Loewe score of less than 5) | Additivity (“Additivity” was indicated with a Loewe score of less than 5) | 
COc1cccc(-c2cc(F)ccc2[C@H]2Cc3nc(N)nc(C)c3C(=O)N2)n1 [NVP-HSP990] | Additivity (“Additivity” was indicated with a Loewe score of less than 5) | Additivity (“Additivity” was indicated with a Loewe score of less than 5) | 
CN[C@@H](C)C(=O)N[C@H](C(=O)N1CCC[C@H]1c1nc(C(=O)c2ccc(F)cc2)cs1)C1CCCCC1 [NVP-LCL161] | Synergy (“Synergy” was indicated by a Loewe score of greater than 5) | Synergy (“Synergy” was indicated by a Loewe score of greater than 5) | 
CCN(CC)CCNC(=O)c1c(C)[nH]c(/C=C2\C(=O)Nc3ccc(F)cc32)c1C [Sutent ®, Sunitinib] | Additivity (“Additivity” was indicated with a Loewe score of less than 5) | Additivity (“Additivity” was indicated with a Loewe score of less than 5) | 
NEG087 (antibody, human IgG1, kappa, V domains shown, Humanized, optimized variant of 9P3; human IgG1 kappa) VH: EVQLVESGGGLVQPGGSLRLSCAASGFTFSDYYMAWVRQAPGKGLEWVASINQNTGSTYYLDSVRGRFTISRDNAKNSLYLQMNSLRAEDTAVYYCARGDYYGTTYWYFDVWGQGTTVTVSS VL: DIQMTQSPSSLSASVGDRVTITCRASQSISSYLNWYQQKPGKAPKLLIYYTSRLQSGVPSRFSGSGSGTDFTLTISSLQPEDFATYYCQQGRRLWSFGGGTKVEIKR |  |  | Kd [2]: 1.13 nM; Kd [3]: 1.39 nM; binding result [4]: no binding (tested: 3.125-50 nM of cKIT ECD injected); binding result [5]: no binding (tested: 3.125-50 nM of cKIT ECD injected)
NEG027 (antibody, human IgG1, kappa, V domains shown, Humanized, optimized variant of 9P3; human IgG1 kappa) VH: EVQLVESGGGLVQPGGSLRLSCAASGFTFSDYYMAWVRQAPGKGLEWVASINQNTGSTYYLDSVRGRFTISRDNAKNSLYLQMNSLRAEDTAVYYCARGDYYGTTYWYFDVWGQGTTVTVSS VL: EIVMTQSPATLSLSPGERATLSCRASQDISNYLNWYQQKPGQAPRLLIYYTSRLQSGIPARFSGSGSGTDYTLTISSLEPEDFAVYYCQQGKKLWSFGGGTKVEIKR |  |  | Kd [2]: 1.34 nM; binding result [4]: no binding (tested: 3.125-50 nM of cKIT ECD injected); binding result [5]: no binding (tested: 3.125-50 nM of cKIT ECD injected)
